Assay results: US20090191173A1, “Induction Of Neurogenesis And Stem Cell Therapy In Combination With Copolymer 1” (priority 2004, published 2009)

System: aNPCs
Assay: Neuronal differentiation of aNPCs with CD4+ T cells, T cell-conditioned medium or cytokines
Assay type: cell-based, mouse
Details: 5 days in culture with cytokine, concentrations as low as 1 ng/ml
Method: (xvii) Co-culturing of neural progenitor cells and T cells. CD4+ T cells were purified from lymph nodes of 8-week-old C57B16/J mice as previously described (Kipnis et al., 2004). T cells were activated in RPMI medium supplemented with L-glutamine (2 mM), 2-mercaptoethanol (5×10^−5 M), sodium pyruvate (1 mM), penicillin (100 IU/ml), streptomycin (100 μg/ml), nonessential amino acids (1 ml/100 ml), and autologous serum 2% (v/v) in the presence of mouse recombinant IL-2 (mrIL-2; 5 ng/ml) and soluble anti-CD28 and anti-CD3. antibodies (1 ng/ml). T cells were co-cultured (5×10^4 cells/well) with aNPCs (5×10^4 cells/well) for 5 d on cover slips coated with Matrigel (BD Biosciences) in 24-well plates. The cultures were then fixed with 2.5% paraformaldehyde in PBS for 30 min at room temperature and stained for neuronal markers.
We therefore sought to determine whether direct interaction between aNPCs and T cells would also result in an altered pattern of aNPC differentiation. To address this question, we activated CD4+ T cells in vitro by a cognate protocol (with anti-CD3 antibodies, anti-CD28 antibodies, and IL-2) for 24 h and then allowed their activation to continue in co-cultures with aNPCs in a transwell culture system. […] After 5 days in culture the aNPCs in the lower chamber were fixed and analyzed for the appearance of newly formed neurons. […]

IFN-γ: recombinant interferon-γ
β-III-tubulin expression in aNPCs: could induce an increase in β-III-tubulin expression
